# Results as given in US20260021103A1, “IKZF2 AND CK1-ALPHA DEGRADING COMPOUNDS AND USES THEREOF” (President and Fellows of Harvard College, priority 2022, published 2026).
# Experiments:
# DLBCL cell line OCI-LY3 = test: 5-day MTT assay in OCI-LY3 cells; type: cell-based; settings: OCI-LY3, 5-day MTT assay
# Method: (§1) Viability Assay: 10,000 cells (e.g., MOLM-13 cells, MLL-AF9 leukemic cells or normal BM cells) were plated onto flat-bottom 96-well plates in media with increasing concentration of compound up to […]. […] For measuring viability, Cell-Titer Glo kit (Promega) or MTT kit was used following manufacturer's instructions. For Cell-Titer Glo assay, cells were cooled to room temperature for 20-30 min, 100 μL of the cultured cells were transferred to opaque-white bottom 96-well plates and mixed with 100 μL of Cell-Titer Glo reagent. The mixture was incubated for 15 min at room temperature and read using a Synergy H1 Hybrid reader (BioTek) for luminescence. Data was normalized as percentage viability and graphed by non-linear regression curves in Graph Pad PRISM 7.0.
# [1] = tested on: endometrioid ovarian cancer cell line A2780; test: 5-day MTT assay in A2780 cells; type: cell-based; settings: A2780, 5-day MTT assay
# Method: as §1
# MLL-AF9 Crbn^1391V cells [2] = test: Survival of Crbn^1391V mice transplanted with MLL-AF9 Crbn^1391V cells; type: in vivo; settings: 223 mg/kg weekly
# IKZF1 = target: T1, IKZF1 (Homo sapiens, UniProt Q13422+Q96SW2); test: Flow cytometry for measuring degradation, HEK293T GFP-POI reporter cells (IKZF1); type: cell-based; settings: 24 h, HEK293T GFP reporter
# T1 construct: expressed in transfected cells; host or cells: HEK293T (lentiviral transduction, puromycin selection, FACS sorting)
# MOLM-13 cells [3] = test: Survival of NSG mice transplanted with MOLM-13 cells; type: in vivo; settings: MOLM-13 transplanted mice, 223 mg/kg weekly
# IKZF2 = target: T2, IKZF2 (Homo sapiens, UniProt Q96SW2+Q9UKS7); test: Flow cytometry for measuring degradation, HEK293T GFP-POI reporter cells (IKZF2); type: cell-based
# T2 construct: expressed in transfected cells; host or cells: HEK293T (lentiviral transduction, puromycin selection, FACS sorting)
# [4] = tested on: small cell lung cancer cell line NCI-H1048; test: 5-day MTT assay in NCI-H1048 cells; type: cell-based; settings: NCI-H1048, 5-day MTT assay
# Method: as §1
# MOLM-13 cells [5] = test: Cell viability assay in MOLM-13 cells; type: cell-based; settings: Homo sapiens, read-out: IC50 (cytotoxicity)
# Method: Viability Assay: 10,000 cells (e.g., MOLM-13 cells, MLL-AF9 leukemic cells or normal BM cells) were plated onto flat-bottom 96-well plates in media with increasing concentration of compound up to 100 µM. Cells were cultured for 72 h at 37° C. in a 5% CO2 incubator. For measuring viability, Cell-Titer Glo kit (Promega) or MTT kit was used following manufacturer's instructions. For Cell-Titer Glo assay, cells were cooled to room temperature for 20-30 min, 100 μL of the cultured cells were transferred to opaque-white bottom 96-well plates and mixed with 100 μL of Cell-Titer Glo reagent. The mixture was incubated for 15 min at room temperature and read using a Synergy H1 Hybrid reader (BioTek) for luminescence. Data was normalized as percentage viability and graphed by non-linear regression curves in Graph Pad PRISM 7.0.
# GSPT1 [6] = target: T3, GSPT1 (Homo sapiens, UniProt P15170+Q96SW2); test: Western blot of NCI-H1048 cells for GSPT1; type: cell-based; settings: 24 h
# [7] = Pharmacokinetics, plasma concentration in mice; settings: male, CD1, mouse, ip, single intraperitoneal injection at 5 mg/kg, read-out: in vivo half-life t1/2 (converted)
# Method: (§2) In vivo drug administration in MLL-AF9 and PDX mouse model: A total of 250,000 of MLL-AF9 BM secondary mouse leukemia cells were injected retroorbitally into 6-8 weeks-old female C57BL/6 recipient mice that has been sublethally irradiated at 450 cGy. For AML PDX model, 1 million PDX cells were transplanted by intravenous injection into 8-10 weeks old female NSG mice that had been sublethally irradiated at 200 rads 24 hr before transplant. […] DEG-77 was treated at 223 mg/kg in DMSO in 50 ul volume. Mice weight was monitored every day to check for toxicity. Mice were sacrificed when moribund, and organ weights were measured for disease burden. Spleen and bone marrow cells were isolated and processed for western blot analysis. All animal studies were performed on animal protocols approved by the Institutional Animal Care and Use Committee (IACUC) at Memorial Sloan Kettering Cancer Center. […] Plasma was extracted from each mouse after indicated time and DEG-35 in plasma was measured using HPLC. For examining the toxicity of DEG-77 in the hematopoietic system of Crbn^1391V mice, four rounds of DMSO or 223 mg/kg DEG-77 was treated in 8-12 weeks old female Crbn^1391V mice. Mice were injected once a week and were sacrificed 4 weeks later for blood analysis using the Element HT5 Hematology Analyzer (HESKA) and analysis of the hematopoietic cells by flow cytometry.
# AML PDX cells = test: AML PDX model in NSG mice; type: in vivo
# Method: as §2
# CK1α = target: T4, CK1α (Homo sapiens, UniProt P48729+Q96SW2); test: Flow cytometry for measuring degradation, HEK293T GFP-POI reporter cells (CK1α); type: cell-based
# T4 construct: expressed in transfected cells; host or cells: HEK293T (lentiviral transduction, puromycin selection, FACS sorting)
# [8] = In vitro metabolic stability; type: in vitro ADME; settings: read-out: in vitro metabolic stability t1/2
# [9] = Toxicity in hematopoietic system of Crbn^1391V mice; type: in vivo; settings: four rounds, 223 mg/kg weekly
# Method: as §2
# GSPT1 [10] = target: T3, GSPT1; test: Flow cytometry for measuring degradation, HEK293T GFP-POI reporter cells (GSPT1); type: cell-based; set-up: expressed in transfected cells; host or cells: HEK293T; settings: 24 h, HEK293T GFP reporter
# MLL-AF9 Crbn^1391V cells [11] = test: Survival of BL6 mice transplanted with MLL-AF9 Crbn^1391V cells; type: in vivo; settings: 223 mg/kg once per week
# Method: Generation of MLL-AF9 Crbn^1391V leukemic cells: Lin-Sca+ Kit+ (LSK) cells were isolated from bone marrow cells of wildtype or Crbn^1391V mice that were 6 to 8 weeks old. Briefly, bone marrow cells were enriched for c-Kit positive cells by incubating with CD117/c-Kit microbeads and then processed through the autoMACS Pro Separator (Miltenyi Biotec), following the manufacturer's instructions. CKit enriched cells were stained with Lineage antibody cocktail (CD3, CD4, CD8, Gr1, B220, CD19, TER119 conjugated with PeCy5), Scal-Pac Blue, CD34-FITC, SLAM-APC, CD48-PE, and c-KIT-APC-Cy7. After staining, cells were sorted for LSK cells using a BD FACS Aria II instrument. Sorted LSK cells were incubated overnight in Stemspan SFEM medium (Stem Cell Technologies) with 10 ng/ml IL-3, 10 ng/ml IL-6, 50 ng/ml SCF. 10 ng/ml thrombopoietin (TPO), and 20 ng/ml FLT-3 ligand. […]
# In vivo drug administration in MLL-AF9 and PDX mouse model: A total of 250,000 of MLL-AF9 BM secondary mouse leukemia cells were injected retroorbitally into 6-8 weeks-old female C57BL/6 recipient mice that has been sublethally irradiated at 450 cGy. […] Mice weight was monitored every day to check for toxicity. Mice were sacrificed when moribund, and organ weights were measured for disease burden. […] Plasma was extracted from each mouse after indicated time and DEG-35 in plasma was measured using HPLC. […]
# [12] = In vitro solubility in DMSO; type: physicochemical
# [13] = 100 nM, 24 h, HEK293T GFP reporter
# [14] = 1 μM, 24 h, HEK293T GFP reporter
# T2 sequence (Q9UKS7 whole entry): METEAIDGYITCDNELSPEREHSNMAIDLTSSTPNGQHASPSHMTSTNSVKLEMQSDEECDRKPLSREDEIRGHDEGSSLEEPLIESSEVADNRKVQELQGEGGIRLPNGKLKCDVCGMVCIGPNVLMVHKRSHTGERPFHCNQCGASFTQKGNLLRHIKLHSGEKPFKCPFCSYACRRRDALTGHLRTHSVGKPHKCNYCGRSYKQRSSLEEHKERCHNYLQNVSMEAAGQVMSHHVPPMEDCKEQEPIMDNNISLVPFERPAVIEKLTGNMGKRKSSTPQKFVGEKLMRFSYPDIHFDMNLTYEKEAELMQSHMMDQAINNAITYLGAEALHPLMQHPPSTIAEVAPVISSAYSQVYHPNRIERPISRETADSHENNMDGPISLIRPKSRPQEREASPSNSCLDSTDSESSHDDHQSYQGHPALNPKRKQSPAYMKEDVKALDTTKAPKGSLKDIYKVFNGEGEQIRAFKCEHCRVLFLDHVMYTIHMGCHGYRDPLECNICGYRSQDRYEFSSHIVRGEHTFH
# T2 sequence (Q96SW2 whole entry): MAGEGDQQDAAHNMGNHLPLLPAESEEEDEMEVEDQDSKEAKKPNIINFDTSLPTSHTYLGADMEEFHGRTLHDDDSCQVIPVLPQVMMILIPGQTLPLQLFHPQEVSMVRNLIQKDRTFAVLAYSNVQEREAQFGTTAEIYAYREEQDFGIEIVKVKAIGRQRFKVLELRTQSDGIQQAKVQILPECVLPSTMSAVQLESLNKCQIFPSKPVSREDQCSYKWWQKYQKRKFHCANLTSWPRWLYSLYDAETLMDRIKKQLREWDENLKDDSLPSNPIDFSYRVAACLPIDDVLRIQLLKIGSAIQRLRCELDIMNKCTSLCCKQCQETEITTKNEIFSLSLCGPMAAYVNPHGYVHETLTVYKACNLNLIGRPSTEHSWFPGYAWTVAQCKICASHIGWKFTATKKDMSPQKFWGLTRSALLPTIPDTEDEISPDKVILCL
# T2 sequence (Q16531 whole entry partner): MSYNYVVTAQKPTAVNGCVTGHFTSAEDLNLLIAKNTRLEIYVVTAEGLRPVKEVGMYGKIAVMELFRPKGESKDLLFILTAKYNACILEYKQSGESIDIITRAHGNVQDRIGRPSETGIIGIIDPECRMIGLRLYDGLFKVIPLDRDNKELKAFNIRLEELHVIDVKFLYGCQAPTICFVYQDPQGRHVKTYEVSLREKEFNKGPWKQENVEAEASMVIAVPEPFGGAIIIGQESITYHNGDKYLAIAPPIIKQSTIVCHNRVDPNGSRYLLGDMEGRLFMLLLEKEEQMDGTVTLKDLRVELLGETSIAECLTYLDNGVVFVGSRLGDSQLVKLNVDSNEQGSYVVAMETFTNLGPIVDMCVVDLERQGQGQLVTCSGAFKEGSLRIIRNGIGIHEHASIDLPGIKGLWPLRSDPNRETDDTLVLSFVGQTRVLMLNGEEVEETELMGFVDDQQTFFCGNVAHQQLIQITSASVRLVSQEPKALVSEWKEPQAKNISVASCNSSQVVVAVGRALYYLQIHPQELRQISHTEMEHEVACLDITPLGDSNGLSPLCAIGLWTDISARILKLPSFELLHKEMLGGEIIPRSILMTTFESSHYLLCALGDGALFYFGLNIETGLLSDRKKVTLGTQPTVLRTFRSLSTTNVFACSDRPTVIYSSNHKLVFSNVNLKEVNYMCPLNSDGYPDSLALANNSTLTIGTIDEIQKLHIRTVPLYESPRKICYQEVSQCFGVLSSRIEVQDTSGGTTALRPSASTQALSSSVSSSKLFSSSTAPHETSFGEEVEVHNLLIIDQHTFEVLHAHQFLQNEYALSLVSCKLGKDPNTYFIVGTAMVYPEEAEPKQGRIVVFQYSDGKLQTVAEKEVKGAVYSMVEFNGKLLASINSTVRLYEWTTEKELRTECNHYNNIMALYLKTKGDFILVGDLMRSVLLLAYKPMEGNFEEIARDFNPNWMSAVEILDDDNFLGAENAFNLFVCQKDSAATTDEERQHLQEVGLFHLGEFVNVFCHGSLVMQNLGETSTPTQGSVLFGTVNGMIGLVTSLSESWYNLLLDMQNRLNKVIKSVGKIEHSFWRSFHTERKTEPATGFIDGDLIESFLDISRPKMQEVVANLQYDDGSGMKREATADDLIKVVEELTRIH
# T3 sequence (P15170 whole entry): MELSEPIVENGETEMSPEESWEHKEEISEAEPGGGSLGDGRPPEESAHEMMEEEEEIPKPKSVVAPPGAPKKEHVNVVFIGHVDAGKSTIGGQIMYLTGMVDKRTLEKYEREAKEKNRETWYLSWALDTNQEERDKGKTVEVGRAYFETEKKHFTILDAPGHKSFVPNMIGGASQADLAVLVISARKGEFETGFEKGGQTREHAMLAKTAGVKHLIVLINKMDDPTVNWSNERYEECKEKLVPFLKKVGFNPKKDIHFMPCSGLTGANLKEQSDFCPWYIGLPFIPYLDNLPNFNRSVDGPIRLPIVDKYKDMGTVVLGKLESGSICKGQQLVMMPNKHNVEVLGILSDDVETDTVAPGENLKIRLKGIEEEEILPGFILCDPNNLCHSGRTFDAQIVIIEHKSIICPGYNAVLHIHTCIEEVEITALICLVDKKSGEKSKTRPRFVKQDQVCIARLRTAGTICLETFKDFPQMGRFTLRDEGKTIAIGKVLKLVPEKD
# T3 sequence (Q96SW2 whole entry): as the sequence (Q96SW2 whole entry) above
# T3 sequence (Q16531 whole entry partner): as the sequence (Q16531 whole entry partner) above
# T4 sequence (P48729 whole entry): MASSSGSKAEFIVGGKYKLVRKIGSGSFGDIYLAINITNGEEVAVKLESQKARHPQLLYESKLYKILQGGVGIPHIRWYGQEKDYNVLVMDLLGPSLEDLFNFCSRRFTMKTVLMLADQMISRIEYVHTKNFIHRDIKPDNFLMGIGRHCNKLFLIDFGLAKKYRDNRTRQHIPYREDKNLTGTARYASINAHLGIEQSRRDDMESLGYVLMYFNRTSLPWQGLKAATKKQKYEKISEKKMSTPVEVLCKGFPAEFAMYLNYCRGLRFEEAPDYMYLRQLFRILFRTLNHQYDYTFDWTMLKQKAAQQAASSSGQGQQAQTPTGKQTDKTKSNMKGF
# T4 sequence (Q96SW2 whole entry): as the sequence (Q96SW2 whole entry) above
# T4 sequence (Q16531 whole entry partner): as the sequence (Q16531 whole entry partner) above
# T1 sequence (Q13422 whole entry): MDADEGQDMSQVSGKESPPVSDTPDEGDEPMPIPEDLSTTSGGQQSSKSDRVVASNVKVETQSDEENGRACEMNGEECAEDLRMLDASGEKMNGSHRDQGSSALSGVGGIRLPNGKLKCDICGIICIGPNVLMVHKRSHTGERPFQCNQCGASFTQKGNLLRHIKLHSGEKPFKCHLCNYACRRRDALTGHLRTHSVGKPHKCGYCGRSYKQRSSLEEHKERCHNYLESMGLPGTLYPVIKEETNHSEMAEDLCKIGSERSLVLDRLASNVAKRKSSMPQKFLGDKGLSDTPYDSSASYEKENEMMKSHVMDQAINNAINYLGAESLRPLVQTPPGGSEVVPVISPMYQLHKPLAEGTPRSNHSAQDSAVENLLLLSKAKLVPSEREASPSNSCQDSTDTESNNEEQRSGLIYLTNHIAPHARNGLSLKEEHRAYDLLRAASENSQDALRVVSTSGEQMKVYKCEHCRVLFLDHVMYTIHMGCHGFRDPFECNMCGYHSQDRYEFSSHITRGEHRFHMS
# T1 sequence (Q96SW2 whole entry): as the sequence (Q96SW2 whole entry) above
# T1 sequence (Q16531 whole entry partner): as the sequence (Q16531 whole entry partner) above
smiles,measurement,setting,value
"COc1ccc2cc(C(=O)Nc3ccc4c(c3)CN(C3CCC(=O)N(C)C3=O)C4=O)ccc2c1 (stereo not drawn) [Me-DEG-35, 6-methoxy-N-(2-(1-methyl-2,6-dioxopiperidin-3-yl)-1-oxoisoindolin-5-yl)-2-naphthamide]",sensitivity of OCI-LY3 cells (in words),DLBCL cell line OCI-LY3,limited activity
same,sensitivity of A2780 cells (in words),[1],limited activity
"COc1cccc2c1OCC(C(=O)Nc1ccc3c(c1)CN(C1CCC(=O)NC1=O)C3=O)=C2 (stereo not drawn) [DEG-77, N-(2-(2,6-dioxopiperidin-3-yl)-1-oxoisoindolin-5-yl)-8-methoxy-2H-chromene-3-carboxamide]",survival (in words),MLL-AF9 Crbn^1391V cells [2],significant increase in survival
same,IKZF1% degradation at 100 nM,IKZF1; 100 nM,10.7 ± 1.1%
same,IKZF1% degradation at 1 μM,IKZF1; 1 μM,29 ± 0.9%
same,survival (in words),MOLM-13 cells [3],increased survival
same,DC50,IKZF2,15.3 nM
same,IKZF2% degradation at 100 nM,IKZF2; [13],82.3 ± 0.6%
same,IKZF2% degradation at 1 μM,IKZF2; [14],94.4 ± 0.1%
same,EC50,"DLBCL cell line OCI-LY3; Homo sapiens, 120 h",14 nM
same,sensitivity of NCI-H1048 cells (in words),[4],selectively sensitive to DEG-35 and not DEG-77
same,IC50,MOLM-13 cells [5],4 nM
same,GSPT1 degradation by Western blot (in words),GSPT1 [6],did not affect protein levels
same,half-life,[7],8 h
same,survival (in words),"AML PDX cells; PDX AML model, weekly from 4 weeks post-transplant, 223 mg/kg",significant extension of survival
same,engraftment of PDX cells in the bone marrow,"AML PDX cells; after a single injection, >85% prior to treatment",around 40%
same,CK1α % degradation at 100 nM,CK1α; [13],68.6 ± 1%
same,CK1α % degradation at 1 μM,CK1α; [14],72.7 ± 0.8%
same,DC50,CK1α; read-out: DC50 CK1α,10 nM
same,half-life,[8],> 6 h
same,EC50,"[1]; Homo sapiens, 120 h",27 nM
same,WBC counts (in words),[9],modest reduction of WBC counts
same,platelets and RBC counts (in words),[9],remained unchanged
same,GSPT1% degradation at 100 nM,GSPT1 [10]; 100 nM,3.7 ± 1.3%
same,GSPT1% degradation at 1 μM,GSPT1 [10]; 1 μM,2.6 ± 1%
same,total body weight (in words),MLL-AF9 Crbn^1391V cells [11],without total body weight loss
same,survival,MLL-AF9 Crbn^1391V cells [11]; vehicle treated mice 35 days,66 days
same,increase in solubility in DMSO compared to DEG-35,[12]; DMSO,10 fold
"COc1cc(C(=O)O)ccc1NC(=O)[C@@H]1N[C@@H](CC(C)(C)C)[C@](C#N)(c2ccc(Cl)cc2F)[C@H]1c1cccc(Cl)c1F [idasanutlin, reference compound]",sensitivity of OCI-LY3 cells (in words),DLBCL cell line OCI-LY3,very limited sensitivity
same,sensitivity of A2780 cells (in words),[1],no demonstrable sensitivity
"COc1ccc2cc(C(=O)Nc3ccc4c(c3)CN(C3CCC(=O)NC3=O)C4=O)ccc2c1 (stereo not drawn) [DEG-35, N-(2-(2,6-dioxopiperidin-3-yl)-1-oxoisoindolin-5-yl)-6-methoxy-2-naphthamide]",EC50,"DLBCL cell line OCI-LY3; Homo sapiens, 120 h",8 nM
same,IC50,MOLM-13 cells [5],6 nM
same,solubility (in words),[12],limited solubility
"O=C1CCC(N2Cc3cc(CNC(=O)C(F)(F)c4ccc(Cl)cc4)ccc3C2=O)C(=O)N1 (stereo not drawn) [CC-90009, reference compound]",EC50,DLBCL cell line OCI-LY3,36 nM
same,EC50,[4],7 nM
same,EC50,[1],269 nM
